Entries after “also recorded” stand apart in the source; their conditions may differ. Numbered stars: 1 amine (or outer) side, 2 acyl side, 3 side chain; on linkers, the order of the positions; unused ones are H or OH. Bridge positions count the residues as written; N and C are the ends. Peptide text beside a SMILES is read from it. I, II: the chains in the order shown. X4 = C[C@@H](CNC(=O)[*:1])NC(=O)NC[C@H](CCC(=O)O)NC(=O)NC[C@H](Cc1ccc(O)cc1)N[*:2]; X3 = C[C@@H](CNC(=O)[*:1])NC(=O)NC[C@H](Cc1ccc(O)cc1)NC(=O)NC[C@H](C)N[*:2]; X5 = C[C@@H](CNC(=O)N[C@@H](C)CNC(=O)[*:2])NC(=O)NC[C@H](CCC(=O)O)N[*:1]
Key:
normal mice (C57BL/6J) = experiment: Blood glucose experiment in healthy mice; type: in vivo, mouse; set-up: key to In vivo activity (indicator): + = active; +++: + + + = more active; details: for effect on blood glucose concentration: fed normal mice, 5 μg/mouse i.v., monitored 6 h; for In vivo activity (indicator): blood glucose, mice, i.v.
Procedure: In the first study, we evaluated the effect of the analogues on the blood glucose concentration of normal mice (FIG. 4). The fed mice were treated with the analogues and their blood glucose concentration was monitored before and after dosing for 6 h. […] Indeed, a decrease of blood glucose concentration is observed after 30 min and the effect is preserved for 4 h after dosing.
Blood glucose experiment in healthy mice. After the acclimation period (at least 5 days), mice (male C57BL/6J mice (Charles River laboratories) (8 weeks old, 20-25 g)) were randomized into 10 groups (n=3/group) according to their body weight. They were acutely treated via i.v. route at 10 AM (5 μg/mouse). Blood glucose was measured before dosing and at 30 min, 1, 2, 4, 6 h after dosing in fed conditions.

[1] = target: T1, mouse GLP-1 receptor endogenously expressed in βTC6 cells (Mus musculus, UniProt O35659); experiment: cAMP production functional assay (HTRF), agonist activity at GLP-1R; type: cell-based; details: for Potency (%), percentage of potency (cAMP production) compared to GLP-1-G^2: Table 2; for Potency (%), percentage of potency compare to GLP-1-G^2: cAMP production, Table 1; for EC50: receptor-mediated cAMP production, βTC6 cells, read-out: EC50 (nM), GLP-1R potency
T1 construct: host or cells: βTC6 cells
T1 sequence (O35659 22-463): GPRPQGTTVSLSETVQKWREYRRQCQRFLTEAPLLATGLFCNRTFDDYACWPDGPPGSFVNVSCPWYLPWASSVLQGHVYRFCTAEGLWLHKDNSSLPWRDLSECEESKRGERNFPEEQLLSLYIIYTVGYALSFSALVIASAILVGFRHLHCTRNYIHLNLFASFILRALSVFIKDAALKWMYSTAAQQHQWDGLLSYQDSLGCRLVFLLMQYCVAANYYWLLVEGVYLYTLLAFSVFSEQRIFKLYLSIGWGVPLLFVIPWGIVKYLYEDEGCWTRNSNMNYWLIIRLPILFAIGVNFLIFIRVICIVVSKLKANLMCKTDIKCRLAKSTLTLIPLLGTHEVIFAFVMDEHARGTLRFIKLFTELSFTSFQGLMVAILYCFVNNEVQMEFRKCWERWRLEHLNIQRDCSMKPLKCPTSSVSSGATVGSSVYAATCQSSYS
Procedure: The agonistic activity of these hybrids were obtained by functional assays using cells expressing the […] and by measuring the receptor-mediated cAMP produced (see supporting information).
In vitro pharmacology (EC50). […] Following incubation, the cells were lysed and the fluorescence acceptor (D2-labeled cAMP) and fluorescence donor (anti-cAMP antibody labeled with europium cryptate) were added.

NEP 24.11 = NEP 24.11 (Homo sapiens, UniProt P08473); experiment: NEP 24.11 enzymatic degradation assay; details: pH 8
Procedure: Enzymatic and mouse plasma degradation studies.
Enzymatic degradation (NEP 24.11). Stock solutions of the oligomers were prepared at a concentration of 400 μM in a solution of 50 mM HEPES buffer, 50 mM NaCl, 0.05% Tween-80, pH 8.0. Stock solution of NEP 24.11 was prepared at a concentration of 100 μg/mL in water. Stability of oligomers to NEP 24.11 was assessed by conducting protease reaction in a 96-well plates at 20° C. […] Each compound was also incubated in the absence of the enzyme (12 μL of HEPES buffer and 38 μL of oligomer). At the indicated time (1, 2, 4, 6 and 22 hours) an aliquot of 10 μL was removed from each experimental reaction and pipetting into 100 μL of 1% TFA solution to quench the reaction, (t=0 min was determined using the reaction without enzyme). A portion of the quenched reaction solution was analyzed by HPLC. The time course of peptide degradation was determined by integrating the area of each peak in a series of HPLC traces.

NEP 24.11, sequence (P08473 whole entry): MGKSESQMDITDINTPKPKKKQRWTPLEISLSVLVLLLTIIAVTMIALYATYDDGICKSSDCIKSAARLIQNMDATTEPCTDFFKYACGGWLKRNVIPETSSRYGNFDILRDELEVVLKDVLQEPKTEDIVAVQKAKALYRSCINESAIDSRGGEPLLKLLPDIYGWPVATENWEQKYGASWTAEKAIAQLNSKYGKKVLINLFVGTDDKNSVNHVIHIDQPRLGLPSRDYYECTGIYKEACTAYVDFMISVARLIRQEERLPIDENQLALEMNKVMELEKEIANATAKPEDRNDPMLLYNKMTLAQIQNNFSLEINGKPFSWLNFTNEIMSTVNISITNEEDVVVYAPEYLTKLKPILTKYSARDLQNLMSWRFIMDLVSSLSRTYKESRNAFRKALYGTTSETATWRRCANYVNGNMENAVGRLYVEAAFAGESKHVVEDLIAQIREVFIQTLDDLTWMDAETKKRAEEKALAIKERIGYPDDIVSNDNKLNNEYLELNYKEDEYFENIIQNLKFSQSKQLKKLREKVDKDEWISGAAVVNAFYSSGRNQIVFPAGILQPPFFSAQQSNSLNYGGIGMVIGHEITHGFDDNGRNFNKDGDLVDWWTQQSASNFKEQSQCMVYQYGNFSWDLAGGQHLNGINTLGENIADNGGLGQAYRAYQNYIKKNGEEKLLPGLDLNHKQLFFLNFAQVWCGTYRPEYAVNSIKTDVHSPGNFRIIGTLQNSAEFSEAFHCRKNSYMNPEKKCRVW

SMILES	effect on blood glucose concentration (normal mice (C57BL/6J))	loss of affinity with GLP-1R compared to the native peptide [1]	Potency (%), percentage of potency (cAMP production) compared to GLP-1-G^2 [1]	Potency (%), percentage of potency compare to GLP-1-G^2 [1]	EC50 [1]	half-life at […] (NEP 24.11)	In vivo activity (indicator) (normal mice (C57BL/6J))
CC[C@H](C)[C@H](NC(=O)[C@H](Cc1ccccc1)NC(=O)[C@H](CCC(=O)O)NC(=O)[C@H](CCCCN)NC(=O)[C@H](C)NC(=O)[C@H](C)NC(=O)[C@H](CCC(N)=O)NC(=O)CNC(=O)[C@H](CCC(=O)O)NC(=O)[C@H](CC(C)C)NC(=O)[C@H](Cc1ccc(O)cc1)NC(=O)NC[C@H](C)NC(=O)NC[C@H](C)NC(=O)N[C@@H](CNC(=O)[C@H](CO)NC(=O)[C@@H](NC(=O)[C@H](Cc1ccccc1)NC(=O)[C@@H](NC(=O)CNC(=O)[C@H](CCC(=O)O)NC(=O)CNC(=O)[C@@H](N)Cc1c[nH]cn1)[C@@H](C)O)[C@@H](C)O)CC(=O)O)C(=O)N[C@@H](C)C(=O)N[C@@H](Cc1c[nH]c2ccccc12)C(=O)N[C@@H](CC(C)C)C(=O)N[C@H](C(=O)N[C@@H](CCCCN)C(=O)NCC(=O)N[C@@H](CCCNC(=N)N)C(=O)NCC(N)=O)C(C)C [Compound 2, GG2[D^UαA^UA^U]^9-12]	no activity; also recorded: no effect	over a hundred fold loss	2%	2%	13 nM	3.6 h	
CC[C@H](C)[C@H](NC(=O)[C@H](Cc1ccccc1)NC(=O)[C@H](CCC(=O)O)NC(=O)[C@H](CCCCN)NC(=O)[C@H](C)NC(=O)[C@H](C)NC(=O)[C@H](CCC(N)=O)NC(=O)CNC(=O)[C@H](CCC(=O)O)NC(=O)NC[C@H](C)NC(=O)NC[C@H](Cc1ccc(O)cc1)NC(=O)NC[C@H](C)NC(=O)[C@@H](NC(=O)[C@H](CC(=O)O)NC(=O)[C@H](CO)NC(=O)[C@@H](NC(=O)[C@H](Cc1ccccc1)NC(=O)[C@@H](NC(=O)CNC(=O)[C@H](CCC(=O)O)NC(=O)CNC(=O)[C@@H](N)Cc1c[nH]cn1)[C@@H](C)O)[C@@H](C)O)C(C)C)C(=O)N[C@@H](C)C(=O)N[C@@H](Cc1c[nH]c2ccccc12)C(=O)N[C@@H](CC(C)C)C(=O)N[C@H](C(=O)N[C@@H](CCCCN)C(=O)NCC(=O)N[C@@H](CCCNC(=N)N)C(=O)NCC(N)=O)C(C)C [Compound 5, GG2[A^UY^UA^U]^11-14] (I: EGQAAKEFIAWLVKGRG-NH2 / II: H-HGEGTFTSDV; linker I:N-II:C via X3)	efficacy but no improvement		15%	15%		2.9 h	+
CC[C@H](C)[C@H](NC(=O)[C@H](Cc1ccccc1)NC(=O)[C@H](CCC(=O)O)NC(=O)[C@H](CCCCN)NC(=O)[C@H](C)NC(=O)[C@H](C)NC(=O)NC[C@H](C)NC(=O)NC[C@H](CCC(=O)O)NC(=O)NC[C@H](Cc1ccc(O)cc1)NC(=O)[C@H](Cc1ccc(O)cc1)NC(=O)[C@H](CO)NC(=O)[C@H](CO)NC(=O)[C@@H](NC(=O)[C@H](CC(=O)O)NC(=O)[C@H](CO)NC(=O)[C@@H](NC(=O)[C@H](Cc1ccccc1)NC(=O)[C@@H](NC(=O)CNC(=O)[C@H](CCC(=O)O)NC(=O)CNC(=O)[C@@H](N)Cc1c[nH]cn1)[C@@H](C)O)[C@@H](C)O)C(C)C)C(=O)N[C@@H](C)C(=O)N[C@@H](Cc1c[nH]c2ccccc12)C(=O)N[C@@H](CC(C)C)C(=O)N[C@H](C(=O)N[C@@H](CCCCN)C(=O)NCC(=O)N[C@@H](CCCNC(=N)N)C(=O)NCC(N)=O)C(C)C [Compound 9, GG2[Y^UE^UA^U]^14-17] (I: AAKEFIAWLVKGRG-NH2 / II: H-HGEGTFTSDVSSY; linker I:N-II:C via X4)	efficacy but no improvement		135%	135%	0.18 nM		+
CC[C@H](C)[C@H](NC(=O)[C@H](Cc1ccccc1)NC(=O)[C@H](CCC(=O)O)NC(=O)[C@H](CCCCN)NC(=O)[C@H](C)NC(=O)NC[C@H](C)NC(=O)NC[C@H](C)NC(=O)NC[C@H](CCC(=O)O)NC(=O)[C@H](CC(C)C)NC(=O)[C@H](Cc1ccc(O)cc1)NC(=O)[C@H](CO)NC(=O)[C@H](CO)NC(=O)[C@@H](NC(=O)[C@H](CC(=O)O)NC(=O)[C@H](CO)NC(=O)[C@@H](NC(=O)[C@H](Cc1ccccc1)NC(=O)[C@@H](NC(=O)CNC(=O)[C@H](CCC(=O)O)NC(=O)CNC(=O)[C@@H](N)Cc1c[nH]cn1)[C@@H](C)O)[C@@H](C)O)C(C)C)C(=O)N[C@@H](C)C(=O)N[C@@H](Cc1c[nH]c2ccccc12)C(=O)N[C@@H](CC(C)C)C(=O)N[C@H](C(=O)N[C@@H](CCCCN)C(=O)NCC(=O)N[C@@H](CCCNC(=N)N)C(=O)NCC(N)=O)C(C)C [Compound 11, GG2[E^UA^UA^U]^15-18] (I: H-HGEGTFTSDVSSYL / II: AKEFIAWLVKGRG-NH2; linker I:C-II:N via X5)	no activity; also recorded: no effect		13%	13%		3.9 h	
CC[C@H](C)[C@@H](CNC(=O)N[C@@H](C)CNC(=O)N[C@@H](CC(C)C)C(=O)N[C@H](C(=O)N[C@@H](CCCCN)C(=O)NCC(=O)N[C@@H](CCCNC(=N)N)C(=O)NCC(N)=O)C(C)C)NC(=O)N[C@@H](CNC(=O)[C@H](CCC(=O)O)NC(=O)[C@H](CCCCN)NC(=O)[C@H](C)NC(=O)[C@H](C)NC(=O)[C@H](CCC(N)=O)NC(=O)CNC(=O)[C@H](CCC(=O)O)NC(=O)[C@H](CC(C)C)NC(=O)[C@H](Cc1ccc(O)cc1)NC(=O)[C@H](CO)NC(=O)[C@H](CO)NC(=O)[C@@H](NC(=O)[C@H](CC(=O)O)NC(=O)[C@H](CO)NC(=O)[C@@H](NC(=O)[C@H](Cc1ccccc1)NC(=O)[C@@H](NC(=O)CNC(=O)[C@H](CCC(=O)O)NC(=O)CNC(=O)[C@@H](N)Cc1c[nH]cn1)[C@@H](C)O)[C@@H](C)O)C(C)C)Cc1ccccc1 [Compound 16, GG2[F^UαI^UA^U]^22-25]	no activity; also recorded: no effect	over a hundred fold loss	0.4%	0.4%	62 nM	1.8 h	
CC[C@H](C)[C@H](NC(=O)[C@H](Cc1ccccc1)NC(=O)[C@H](CCC(=O)O)NC(=O)[C@H](CCCCN)NC(=O)[C@H](C)NC(=O)[C@H](C)NC(=O)[C@H](CCC(N)=O)NC(=O)CNC(=O)[C@H](CCC(=O)O)NC(=O)[C@H](CC(C)C)NC(=O)[C@H](Cc1ccc(O)cc1)NC(=O)[C@H](CO)NC(=O)[C@H](CO)NC(=O)[C@@H](NC(=O)[C@H](CC(=O)O)NC(=O)[C@H](CO)NC(=O)[C@@H](NC(=O)[C@H](Cc1ccccc1)NC(=O)[C@@H](NC(=O)CNC(=O)[C@H](CCC(=O)O)NC(=O)CNC(=O)[C@@H](N)Cc1c[nH]cn1)[C@@H](C)O)[C@@H](C)O)C(C)C)C(=O)NC(C)CNC(=O)NC(C)CNC(=O)NC(C)CNC(=O)N[C@@H](CCCCN)C(=O)NCC(=O)N[C@@H](CCCNC(=N)N)C(=O)NCC(N)=O (stereo partly drawn) [Compound 18, GG2[A^UA^UA^U]^24-27]				<0.01%			
